Measurements: patent publication US12564193B2, “Isoxazoline-substituted benzamide derivative, and preparation method therefor and use thereof” (SHANDONG UNITED PESTICIDE INDUSTRY CO., LTD., priority 2020, dated 2026)
Like-named read-outs stand apart in the source and are kept apart here.

Tests used:
Assay type in all cases: in vivo
[1] = test system: Frankliniella occidentalis; experiment: Insecticidal activity, spray on pre-infested radish plants: Frankliniella occidentalis; conditions: for Fatality rate on Frankliniella occidentalis (%): Table 3; for pest or weed control at 1 ppm / pest or weed control at 10 ppm / pest or weed control at 25 ppm: Frankliniella occidentalis, 144 h, read-out: fatality rate on Frankliniella occidentalis
Experimental: (§1) For determination of insecticidal activity, the test method was as follows: a test solution with a desired concentration was prepared by dissolving a test compound sample in a suitable solvent (the kind of solvent was such as acetone, methanol, DMSO, etc., and was selected according to its dissolving ability for the sample). The test cell was composed of a small open container with 12-15 day old radish plants inside. The plants were pre-infested by placing 30-40 pests located on one leaf cut from the cultivated plant on one leaf of the test plant (leaf cutting method). As the leaves dehydrated, the pests moved on the test plants. After the pre-infesting, the soil of the test cells was covered with a layer of sand.
The test method was as follows: the test was repeated for three times, and after spraying the formulated test compound, each test unit was allowed to dry for 1 hour, and then a black mesh cover was placed at the top. The test units were kept in a growth chamber at 25° C. and 70% relative humidity for 6 days. The mortality (fatality rate) of the insects was then visually assessed for each test unit, and the fatality rate was calculated as follows:
[formula] (1) Test Results for the Control of Frankliniella occidentalis by Exemplary Example Compounds

[2] = test system: Chilo suppressalis; experiment: Insecticidal activity, spray on pre-infested radish plants: Chilo suppressalis; conditions: for Fatality rate on Chilo suppressalis (%): Table 3; for pest or weed control at 0.1 ppm / pest or weed control at 1 ppm / pest or weed control at 10 ppm: Chilo suppressalis, 144 h, read-out: fatality rate on Chilo suppressalis
Experimental: as §1
(§2) The test method was as follows: the test was repeated for three times, and after spraying the formulated test compound, each test unit was allowed to dry for 1 hour, and then a black mesh cover was placed at the top. The test units were kept in a growth chamber at 25° C. and 70% relative humidity for 6 days. The mortality (fatality rate) of the insects was then visually assessed for each test unit, and the fatality rate was calculated as follows: […]

[3] = test system: Plutella xylostella; experiment: Insecticidal activity, spray on pre-infested radish plants: Plutella xylostella; conditions: for Fatality rate on Plutella xylostella (%): Table 3; for pest or weed control at 0.1 ppm / pest or weed control at 1 ppm / pest or weed control at 10 ppm: Plutella xylostella, 144 h, read-out: fatality rate on Plutella xylostella
Experimental: as §1, §2

[4] = test system: Mythimna separata; experiment: Insecticidal activity, spray on pre-infested radish plants: Mythimna separata; conditions: for Fatality rate on Mythimna separata (%): Table 3; for pest or weed control at 0.1 ppm / pest or weed control at 1 ppm / pest or weed control at 10 ppm: Mythimna separata, 144 h, read-out: fatality rate on Mythimna separata
Experimental: as §1, §2

[5] = test system: Tetranychus cinnabarinus; experiment: Acaricidal activity, slide immersion of female adult mites: Tetranychus cinnabarinus; conditions: read-out: fatality rate on Tetranychus cinnabarinus
Experimental: The test method was as follows: a test solution with a desired concentration was prepared by dissolving a test compound sample in a suitable solvent (the kind of solvent was such as acetone, methanol, DMSO, etc., and was selected according to its dissolving ability for the sample). A double-sided adhesive tape was cut into 2-3 cm long pieces, the pieces were attached to one end of a microscope slide, paper pieces on the adhesive tape were removed using tweezers, female adult mites which were consistent in size, bright in body color and lively in action were selected using a zero-size brush pen, the backs of the female adult mites were adhered to the double-sided adhesive tape (note: the adhesion should not cover mite feet, mite whiskers and mouthparts), with 4 rows of mites adhered to each piece and 10 heads of the mites adhered to each row.
One end of the glass slide with the mites was immersed into a drug liquid, with slightly shaking for 5 seconds, and then the slide was taken out. The excess drug liquid around the mite body and is surroundings is quickly sucked off using absorbent paper. The slide was placed in the biochemical incubator described above, and the results were checked by using binoculars after 24 hours. The mites were slightly touched by using a brush pen, the mites with immobility in feet were considered to be dead, and the fatality rate was calculated. The fatality rate was calculated as follows: […]

[6] = test system: Pieris rapae; experiment: Insecticidal activity, spray on pre-infested radish plants: Pieris rapae; conditions: 144 h, read-out: fatality rate on Pieris rapae
Experimental: as §1, §2

[7] = test system: Cnaphalocrocis medinalis; experiment: Insecticidal activity, spray on pre-infested radish plants: Cnaphalocrocis medinalis; conditions: 144 h, read-out: fatality rate on Cnaphalocrocis medinalis
Experimental: as §1, §2

[8] = test system: Spodoptera litura; experiment: Insecticidal activity, spray on pre-infested radish plants: Spodoptera litura; conditions: 144 h, read-out: fatality rate on Spodoptera litura
Experimental: as §1, §2

Cc1cc(C2=NOC(c3cc(Cl)cc(Cl)c3)(C(F)(F)F)C2)ccc1C(=O)NCc1ccc(Cl)nc1 (stereo not drawn) [CK1, reference compound]
100%: Fatality rate on Chilo suppressalis (%) ([2]; 10 ppm) | Fatality rate on Plutella xylostella (%) ([3]; 10 ppm) | Fatality rate on Mythimna separata (%) ([4]; 10 ppm)
40%: Fatality rate on Frankliniella occidentalis (%) ([1]; 10 ppm)
0%: Fatality rate on Frankliniella occidentalis (%) ([1]; 1 ppm) | Fatality rate on Chilo suppressalis (%) ([2]; 0.1 ppm)
10%: Fatality rate on Mythimna separata (%) ([4]; 0.1 ppm)
50%: Fatality rate on Chilo suppressalis (%) ([2]; 1 ppm)
15%: Fatality rate on Plutella xylostella (%) ([3]; 0.1 ppm)
80%: Fatality rate on Frankliniella occidentalis (%) ([1]; 25 ppm) | Fatality rate on Plutella xylostella (%) ([3]; 1 ppm) | Fatality rate on Mythimna separata (%) ([4]; 1 ppm)

Cc1cc(C2=NOC(c3cc(Cl)c(F)c(Cl)c3)(C(F)(F)F)C2)ccc1C(=O)NCc1ccc(Cl)nc1 (stereo not drawn) [Compound 1, N-((6-chloropyridin-3-yl)methyl)-4-(5-(3,5-dichloro-4-fluorophenyl)-5-(trifluoromethyl)-4,5-dihydroisoxazol-3-yl)-2-methylbenzamide]
> 80%: pest or weed control at 1 ppm [1] | pest or weed control at 10 ppm [1] | pest or weed control at 25 ppm [1] | pest or weed control at 1 ppm ([5]; 24 h) | pest or weed control at 10 ppm ([5]; 24 h) | pest or weed control at 25 ppm ([5]; 24 h) | pest or weed control at 0.1 ppm [6] | pest or weed control at 1 ppm [6] | pest or weed control at 10 ppm [6] | pest or weed control at 0.1 ppm [7] | pest or weed control at 1 ppm [7] | pest or weed control at 10 ppm [7] | pest or weed control at 0.1 ppm [2] | pest or weed control at 1 ppm [2] | pest or weed control at 10 ppm [2] | pest or weed control at 0.1 ppm [3] | pest or weed control at 1 ppm [3] | pest or weed control at 10 ppm [3] | pest or weed control at 0.1 ppm [4] | pest or weed control at 1 ppm [4] | pest or weed control at 10 ppm [4] | pest or weed control at 0.1 ppm [8] | pest or weed control at 1 ppm [8] | pest or weed control at 10 ppm [8]
90%: Fatality rate on Chilo suppressalis (%) ([2]; 0.1 ppm)
100%: Fatality rate on Frankliniella occidentalis (%) ([1]; 10 ppm) | Fatality rate on Frankliniella occidentalis (%) ([1]; 25 ppm) | Fatality rate on Chilo suppressalis (%) ([2]; 1 ppm) | Fatality rate on Chilo suppressalis (%) ([2]; 10 ppm) | Fatality rate on Plutella xylostella (%) ([3]; 0.1 ppm) | Fatality rate on Plutella xylostella (%) ([3]; 1 ppm) | Fatality rate on Plutella xylostella (%) ([3]; 10 ppm) | Fatality rate on Mythimna separata (%) ([4]; 1 ppm) | Fatality rate on Mythimna separata (%) ([4]; 10 ppm)
95%: Fatality rate on Frankliniella occidentalis (%) ([1]; 1 ppm) | Fatality rate on Mythimna separata (%) ([4]; 0.1 ppm)

Cc1cc(C2=NOC(c3cc(F)c(F)c(F)c3)(C(F)(F)F)C2)ccc1C(=O)NCc1ccc(Cl)nc1 (stereo not drawn) [Compound 2, N-((6-chloropyridin-3-yl)methyl)-2-methyl-4-(5-(trifluoromethyl)-5-(3,4,5-trifluorophenyl)-4,5-dihydroisoxazol-3-yl)benzamide]
> 80%: pest or weed control at 1 ppm ([1]; dose 1 ppm, spray, 6 days) | pest or weed control at 10 ppm ([1]; dose 10 ppm, spray, 6 days) | pest or weed control at 25 ppm ([1]; dose 25 ppm, spray, 6 days) | pest or weed control at 1 ppm ([5]; dose 1 ppm, immersion 5 seconds, checked after 24 hours) | pest or weed control at 10 ppm ([5]; dose 10 ppm, immersion 5 seconds, checked after 24 hours) | pest or weed control at 25 ppm ([5]; dose 25 ppm, immersion 5 seconds, checked after 24 hours) | pest or weed control at 0.1 ppm ([6]; dose 0.1 ppm, spray, 6 days) | pest or weed control at 1 ppm ([6]; dose 1 ppm, spray, 6 days) | pest or weed control at 10 ppm ([6]; dose 10 ppm, spray, 6 days) | pest or weed control at 0.1 ppm ([7]; dose 0.1 ppm, spray, 6 days) | pest or weed control at 1 ppm ([7]; dose 1 ppm, spray, 6 days) | pest or weed control at 10 ppm ([7]; dose 10 ppm, spray, 6 days) | pest or weed control at 0.1 ppm ([2]; dose 0.1 ppm, spray, 6 days) | pest or weed control at 1 ppm ([2]; dose 1 ppm, spray, 6 days) | pest or weed control at 10 ppm ([2]; dose 10 ppm, spray, 6 days) | pest or weed control at 0.1 ppm ([3]; dose 0.1 ppm, spray, 6 days) | pest or weed control at 1 ppm ([3]; dose 1 ppm, spray, 6 days) | pest or weed control at 10 ppm ([3]; dose 10 ppm, spray, 6 days) | pest or weed control at 0.1 ppm ([4]; dose 0.1 ppm, spray, 6 days) | pest or weed control at 1 ppm ([4]; dose 1 ppm, spray, 6 days) | pest or weed control at 10 ppm ([4]; dose 10 ppm, spray, 6 days) | pest or weed control at 0.1 ppm ([8]; dose 0.1 ppm, spray, 6 days) | pest or weed control at 1 ppm ([8]; dose 1 ppm, spray, 6 days) | pest or weed control at 10 ppm ([8]; dose 10 ppm, spray, 6 days)
85%: Fatality rate on Plutella xylostella (%) ([3]; 0.1 ppm) | Fatality rate on Mythimna separata (%) ([4]; 0.1 ppm)
90%: Fatality rate on Frankliniella occidentalis (%) ([1]; 1 ppm)
80%: Fatality rate on Chilo suppressalis (%) ([2]; 0.1 ppm)
100%: Fatality rate on Frankliniella occidentalis (%) ([1]; 10 ppm) | Fatality rate on Frankliniella occidentalis (%) ([1]; 25 ppm) | Fatality rate on Chilo suppressalis (%) ([2]; 1 ppm) | Fatality rate on Chilo suppressalis (%) ([2]; 10 ppm) | Fatality rate on Plutella xylostella (%) ([3]; 1 ppm) | Fatality rate on Plutella xylostella (%) ([3]; 10 ppm) | Fatality rate on Mythimna separata (%) ([4]; 1 ppm) | Fatality rate on Mythimna separata (%) ([4]; 10 ppm)

Cc1cc(C2=NOC(c3cc(Cl)c(F)c(Cl)c3)(C(F)(F)F)C2)ccc1C(=O)NCc1cnccc1C(F)(F)F (stereo not drawn) [Compound 3]
> 80%: pest or weed control at 1 ppm [1] | pest or weed control at 10 ppm [1] | pest or weed control at 25 ppm [1] | pest or weed control at 1 ppm ([5]; 24 h) | pest or weed control at 10 ppm ([5]; 24 h) | pest or weed control at 25 ppm ([5]; 24 h) | pest or weed control at 0.1 ppm [6] | pest or weed control at 1 ppm [6] | pest or weed control at 10 ppm [6] | pest or weed control at 0.1 ppm [7] | pest or weed control at 1 ppm [7] | pest or weed control at 10 ppm [7] | pest or weed control at 0.1 ppm [2] | pest or weed control at 1 ppm [2] | pest or weed control at 10 ppm [2] | pest or weed control at 0.1 ppm [3] | pest or weed control at 1 ppm [3] | pest or weed control at 10 ppm [3] | pest or weed control at 0.1 ppm [4] | pest or weed control at 1 ppm [4] | pest or weed control at 10 ppm [4] | pest or weed control at 0.1 ppm [8] | pest or weed control at 1 ppm [8] | pest or weed control at 10 ppm [8]

Cc1cc(C2=NOC(c3cc(Cl)c(F)c(Cl)c3)(C(F)(F)F)C2)ccc1C(=O)NCc1cnc(Cl)cc1C(F)(F)F (stereo not drawn) [Compound 5]
> 80%: pest or weed control at 1 ppm [1] | pest or weed control at 10 ppm [1] | pest or weed control at 25 ppm [1] | pest or weed control at 1 ppm ([5]; 24 h) | pest or weed control at 10 ppm ([5]; 24 h) | pest or weed control at 25 ppm ([5]; 24 h) | pest or weed control at 0.1 ppm [6] | pest or weed control at 1 ppm [6] | pest or weed control at 10 ppm [6] | pest or weed control at 0.1 ppm [7] | pest or weed control at 1 ppm [7] | pest or weed control at 10 ppm [7] | pest or weed control at 0.1 ppm [2] | pest or weed control at 1 ppm [2] | pest or weed control at 10 ppm [2] | pest or weed control at 0.1 ppm [3] | pest or weed control at 1 ppm [3] | pest or weed control at 10 ppm [3] | pest or weed control at 0.1 ppm [4] | pest or weed control at 1 ppm [4] | pest or weed control at 10 ppm [4] | pest or weed control at 0.1 ppm [8] | pest or weed control at 1 ppm [8] | pest or weed control at 10 ppm [8]
